Molecules are shown by their SMILES.

The first assay deals with HIF. The experiment in a line: luciferase cell assay based on the HIF response elements (HRE), HeLa 9XHRE-LUC. Set-up: species or system human. The settings on record: Homo sapiens; cell assay based on the HIF response elements (Example 1), HeLa 9XHRE-LUC; read-out: IC50 HRE. The source says: In order to identify direct inhibitors of the activity of HIF, a stable recombinant line was first constructed from the cervical tumor line, known in scientific literature as HeLa, which contained the deoxyribonucleic acid (DNA) sequences of the region located between positions -985 and -951 of the human vascular endothelial growth factor (hVEGF), repeated nine times (9X) and fused to the luciferase reporter gene (LUC). This plasmid, provided by Dr. Manuel Ortiz de Landazuri from the Hospital de La Princesa of Madrid, called 9XHRE-LUC, was prepared using a commercial kit (Endofree Maxi-Prep; Qiagen, Inc., Valencia, CA). The transfections were performed with FuGene6 (Roche, cat.1814443) according to the manufacturer's instructions, the µg DNA: µg FuGene ratio was 1:3. The transfected cell lines were generated by cotransfection with the vector pCMV-Hygrom which expressed a hygromycin resistance gene in mammalian cells, allowing the selection of the transfected clones. After 48 hours, the growth medium was substituted with fresh medium containing 100 µg/ml hygromycin (Sigma), the clones resistant to the antibiotic were collected and analyzed by means of RT-PCR to select the clone with the desired construct. Routinely, the HeLa 9XHRE-LUC cell line was maintained in exponential growth by means of performing subcultures in DMEM (Invitrogen-Life Technologies, Inc., Carlsbad, CA), supplemented with 10% inactivated fetal bovine serum (Whittacker Bioproducts), penicillin (50 IU/ml), streptomycin (50 µg/ml) (Invitrogen-Life Technologies, Inc., Carlsbad, CA). The cells were cultured at 37°C with a humidified atmosphere containing 5% CO2 and 300 nM Desferoxamine (DFX; Sigma St. Louis, MO).
The compounds of the Collection of the CIPF, coming from a selection of commercial collections of Sigma-Aldrich, were solubilized in DMSO at a final concentration of 5 mM and preserved at -80°C. The concentration of these compounds in the luciferase assay was 1 mcM finally in the well of the multi-well plate in which the reaction was carried out. The luciferase assays were performed in white 96-well plates (Valtecknova ref. 3917), using the kit Bright-Glo™ Luciferase Assay System (Promega, Inc., Madison, WI) following the instructions supplied by the manufacturer.
According to the methodology of the cell assay based on the HIF response elements (Example 1), the intermediate compounds of the synthesis and several synthesized analogs were tested to obtain the SAR of FM19G11.
Take `COC(=O)c1cccc(NC(=O)c2ccc([N+](=O)[O-])cc2[N+](=O)[O-])c1` [Compound 2, methyl 3-((2,4-dinitro)benzamido)benzoate]: the half-maximal inhibitory concentration (IC50) was over 1000 nM. On the same count and under the same terms, the result for `O=C(O)c1cccc(NC(=O)c2ccc([N+](=O)[O-])cc2[N+](=O)[O-])c1` [Compound 3, 3-((2,4-dinitro)benzamido)benzoic acid] reads over 1000 nM; that for `COC(=O)c1cccc(NC(=O)c2ccc(C(F)(F)F)cc2[N+](=O)[O-])c1` [Compound 5, methyl 3-(2-nitro-4-(trifluoromethyl)benzamido)benzoate], over 1000 nM; that for `O=C(O)c1cccc(NC(=O)c2ccc(C(F)(F)F)cc2[N+](=O)[O-])c1` [Compound 6, 3-(2-nitro-4-(trifluoromethyl)benzamido)benzoic acid], over 1000 nM. The same measure, in the same setting: the result for `Cc1ccc(C(=O)COC(=O)c2cccc(NC(=O)c3ccc(C(F)(F)F)cc3[N+](=O)[O-])c2)cc1` [Compound 7, 2-oxo-2-(p-tolyl)ethyl 3-(2-nitro-4-(trifluoromethyl)benzamido)benzoate] reads 84 nM; that for `COC(=O)c1cccc(NC(=O)c2ccc([N+](=O)[O-])cc2C(F)(F)F)c1` [Compound 8, methyl 3-(4-nitro-2-(trifluoromethyl)benzamido)benzoate], over 1000 nM; that for `O=C(O)c1cccc(NC(=O)c2ccc([N+](=O)[O-])cc2C(F)(F)F)c1` [Compound 9, 3-(4-nitro-2-(trifluoromethyl)benzamido)benzoic acid], over 1000 nM. Still for that read-out and setting: the result for `Cc1ccc(C(=O)COC(=O)c2cccc(NC(=O)c3ccc([N+](=O)[O-])cc3C(F)(F)F)c2)cc1` [Compound 10, 2-oxo-2-(p-tolyl)ethyl 3-(4-nitro-2-(trifluoromethyl)benzamido)benzoate] reads 140 nM. Regarding `O=C(O)c1cccc(NC(=O)c2ccc(C(F)(F)F)cc2C(F)(F)F)c1` [Compound 12, 3-(2,4-bis-(trifluoromethyl)benzamido)benzoic acid], the IC50 is over 1000 nM.

Regarding `Cc1ccc(C(=O)COC(=O)c2cccc(NC(=O)c3ccc(C(F)(F)F)cc3C(F)(F)F)c2)cc1` [Compound 13, 2-oxo-2-(p-tolyl)ethyl 3-(2,4-bis(trifluoromethyl)benzamido)benzoate], the IC50 turned out to be 300 nM.

Turning to `Cc1ccc(C(=O)COC(=O)c2cccc(NC(=O)c3ccccc3)c2)cc1` [Compound 16, 2-oxo-2-(p-tolyl)ethyl 3-(benzamido)benzoate], the IC50 is over 1000 nM. Same read-out and setting: then `O=C(COC(=O)c1cccc(NC(=O)c2ccc([N+](=O)[O-])cc2[N+](=O)[O-])c1)c1ccccc1` [Compound 19, 2-phenyl-2-oxoethyl 3-(2,4-(dinitro)benzamido)benzoate], with over 1000 nM.

In the case of `Cc1ccc(C(=O)COC(=O)c2cccc(NC(=O)c3ccc([N+](=O)[O-])cc3)c2)cc1` [Compound 22, 2-oxo-2-(p-tolyl)ethyl 3-(4-nitrobenzamido)benzoate], the IC50 worked out at 2500 nM. On the same count and under the same terms, then `COC(=O)c1cccc(NC(=O)c2ccccc2[N+](=O)[O-])c1` [Compound 23, methyl 3-(2-nitrobenzamido)benzoate], with over 1000 nM. Take `O=C(O)c1cccc(NC(=O)c2ccccc2[N+](=O)[O-])c1` [Compound 24, 3-(2-nitrobenzamido)benzoic acid]: the IC50 is 1400 nM. The same measure, in the same setting: the result for `Cc1ccc(C(=O)COC(=O)c2cccc(NC(=O)c3ccccc3[N+](=O)[O-])c2)cc1` [Compound 25, 2-oxo-2-(p-tolyl)ethyl 3-(2-nitrobenzamido)benzoate] reads 2800 nM; that for `O=C(O)c1ccc(C(=O)COC(=O)c2cccc(NC(=O)c3ccc([N+](=O)[O-])cc3[N+](=O)[O-])c2)cc1` [Compound 29, 4-(2-(3-(2,4-dinitrobenzamido)benzoyloxy)-acetyl)benzoic acid], 1400 nM.

The assay is the same for the next values; noted with them: cell assay based on the HIF response elements (Example 1), HeLa 9XHRE-LUC; read-out: IC50 HRE.
With `O=C(COC(=O)c1cccc(NC(=O)c2ccc([N+](=O)[O-])cc2[N+](=O)[O-])c1)c1ccc(C(F)(F)F)cc1` [Compound 17, 2-oxo-2-(4-trifluoromethyl) ethyl 3-(2,4-(dinitro)benzamido)benzoate], the half-inhibitory concentration (IC50) is 1000 nM.

Take `O=C(COC(=O)c1cccc(NC(=O)c2ccc([N+](=O)[O-])cc2[N+](=O)[O-])c1)c1ccc(O)cc1` [Compound 26, 2-(4-hydroxyphenyl)-2-oxoethyl 3-(2,4-(dinitro)benzamido)benzoate]: the IC50 turned out to be 360 nM.

A word on the IC50: it is the concentration needed to halve the response being measured.

Source of the values: patent publication EP2292587A1, “PHARMACEUTICAL COMPOSITION FOR INHIBITING THE TRANSCRIPTION FACTOR INDUCIBLE BY HYPOXIA, MODULATORS OF PATHOLOGICAL PROCESSES OF ANGIOGENESIS, ONCOGENESIS, INFLAMMATION, APOPTOSIS, AND CELLULAR THERAPY” (Fundacion De La Comunidad Valenciana Centro De …, priority 2008, dated 2009).
